Experimental data reported in patent publication US8481727B2, “Crystals of hydrochloride of pyridazin-3(2H)-one compound and process for production of same” (Nissan Chemical Industries, Ltd., priority 2008, dated 2013).

Assay: Dissolution test, paddle method in Japanese Pharmacopoeia (Test Example 1)
Assay type: physicochemical
Settings: about 10 mg in 900 ml test fluid, 50 rpm; dissolution test first fluid (pH 1.2) and second fluid (pH 6.8); sampling at 10, 30, 60 and 120 minutes; UV measurement; compared with A-form crystal
Method: About 10 mg of each of A-form crystal (Form A) obtained in Example 1, B-form crystal (Form B) obtained in Example 2 and H-form crystal (Form H) obtained in Example 3 was sampled, and a test was carried out at 50 rpm by the dissolution test method paddle method in Japanese Pharmacopoeia using 900 ml of a test fluid. Upon expiration of 10 minutes, 30 minutes, 60 minutes and 120 minutes after initiation of the test, sampling was carried out, and UV measurements were carried out, whereupon the dissolution ratios were calculated. Here, as the dissolution tester, NTR-VS6P manufactured by TOYAMA SANGYO CO., LTD. was used; as the spectrophotometer, UV-2400PC manufactured by Shimadzu Corporation was used; and as the test fluid, the dissolution test first fluid (pH 1.2) and second fluid (pH 6.8) were used. The results are shown in FIGS. 3 and 4 (the ordinate represents the dissolution ratio (%), and the abscissa represents the dissolution time (minutes)).

solubility (dissolution ratio): superior to A-form crystal in solubility
SMILES: Cl.O=c1[nH]nc(OCCCc2ccc(Cl)cc2)c(NCc2cccnc2)c1Br [B-form crystal, 4-bromo-6-(3-(4-chlorophenyl)propoxy)-5-(pyridin-3-ylmethylamino)pyridazin-3(2H)-one mono-hydrochloride]
